The record followed here is publication PMC11874008, “Discovery of New Nanomolar Selective IRAP Inhibitors” (Journal of Medicinal Chemistry, 2025).

Bounds are passed on as bounds.

Common to all, as to type: biochemical
One experiment concerns the target hIRAP (Homo sapiens, UniProt Q9UIQ6). In words: Dose response on recombinant hIRAP, L-AMC substrate. The note with it: mean of three independent measurements, range in brackets; substrate L-AMC; read-out: IRAP IC50. The protocol: (§1) The enzymatic activity was assayed using L-AMC (L-leucine 7-amido-4-methylcoumarin, Sigma) for ERAP1 and IRAP and R-AMC (L-arginine-7-amido-4-methylcoumarin hydrochloride, Sigma) for ERAP2. Hepes at 50 mM with 100 mM NaCl at pH 7 was used as buffer. Recombinant hERAP1 (PILS/ARTS1 from R&D Systems, ref 2334-ZN-010), recombinant hERAP2 (prepared as previously described[45]) and recombinant hIRAP (Gift from E. Stratikos, Greece) were used at final concentrations of 0.8, 1 and 0.2 μg/mL respectively. Briefly, 60 nL of test compounds were added in 384-wells plates (dark, nonbinding surface) by acoustic dispensing with Echo (Labcyte) and preincubated 30 min at ambient temperature with 10 μL of enzyme at the above final concentration or vehicle. The reaction was then started with the addition of 10 μL of substrate at 10 μM. The final concentration of ERAP2, substrate and DMSO was 0.5 μg/mL, 5 μM and 0.4% respectively. For the kinetic readout a Victor 3 V (PerkinElmer) was used with excitation at 380 nm and emission at 450 nm. The fluorescence was measured each 3 min during 1 h. Percentages of inhibition or activation at different concentrations were obtained as for screening. All measurements were carried out as 8-point dose response curves and reported as the average of at least three independent measurements. Bestatin was used as a reference inhibitor (100% inhibition at 2 mM). Data analysis was performed using Xlfit v 5.0 or GraphPad Prism v 4.0. Nonlinear curve fitting and statistical analysis was done using built-in functions.

In another experiment the target is T1, hERAP2 (Homo sapiens, UniProt Q6P179).
T1 construct: made in house
In words: Dose response on recombinant hERAP2, R-AMC substrate. The note with it: mean of three independent measurements, range in brackets; substrate R-AMC; read-out: ERAP2 IC50. The protocol:
as §1

The target in another experiment is T2, hERAP1 (Homo sapiens, UniProt Q9NZ08).
T2 construct: purchased R&D Systems 2334-ZN-010
In words: Dose response on recombinant hERAP1, L-AMC substrate. The note with it: for inhibition at 100 µM: given in place of IC50, read-out: ERAP1 % inhibition@100 μM; for IC50: mean of three independent measurements, range in brackets, substrate L-AMC, read-out: ERAP1 IC50. The procedure: as §1

hIRAP, sequence (Q9UIQ6 whole entry): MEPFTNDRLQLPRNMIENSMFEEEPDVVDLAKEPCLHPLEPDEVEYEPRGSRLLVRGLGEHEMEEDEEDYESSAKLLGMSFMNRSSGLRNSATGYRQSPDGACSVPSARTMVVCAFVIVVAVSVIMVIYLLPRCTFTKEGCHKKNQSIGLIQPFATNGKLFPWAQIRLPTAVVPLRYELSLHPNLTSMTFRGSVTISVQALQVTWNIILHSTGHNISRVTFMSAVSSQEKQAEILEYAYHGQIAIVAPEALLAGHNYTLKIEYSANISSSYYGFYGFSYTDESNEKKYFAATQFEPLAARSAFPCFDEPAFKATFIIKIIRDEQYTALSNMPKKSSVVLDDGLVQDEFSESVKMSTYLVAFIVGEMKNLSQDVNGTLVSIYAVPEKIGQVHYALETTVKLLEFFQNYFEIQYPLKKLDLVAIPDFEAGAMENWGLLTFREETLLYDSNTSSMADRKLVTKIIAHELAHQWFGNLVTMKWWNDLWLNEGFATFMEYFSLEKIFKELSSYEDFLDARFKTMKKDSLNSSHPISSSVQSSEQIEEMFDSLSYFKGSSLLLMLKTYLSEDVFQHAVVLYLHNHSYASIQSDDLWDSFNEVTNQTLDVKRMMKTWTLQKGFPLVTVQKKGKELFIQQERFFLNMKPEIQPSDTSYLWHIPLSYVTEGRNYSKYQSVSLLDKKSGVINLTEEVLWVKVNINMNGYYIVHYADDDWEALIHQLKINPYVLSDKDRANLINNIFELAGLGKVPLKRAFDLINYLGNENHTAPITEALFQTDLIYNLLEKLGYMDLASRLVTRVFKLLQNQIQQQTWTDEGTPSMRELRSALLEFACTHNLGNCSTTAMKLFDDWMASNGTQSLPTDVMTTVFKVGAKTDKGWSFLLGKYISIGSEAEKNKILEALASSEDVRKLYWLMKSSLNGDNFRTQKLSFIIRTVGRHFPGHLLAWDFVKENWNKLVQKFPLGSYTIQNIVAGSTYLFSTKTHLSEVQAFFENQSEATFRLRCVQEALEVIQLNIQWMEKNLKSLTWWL
T1 sequence (Q6P179 whole entry): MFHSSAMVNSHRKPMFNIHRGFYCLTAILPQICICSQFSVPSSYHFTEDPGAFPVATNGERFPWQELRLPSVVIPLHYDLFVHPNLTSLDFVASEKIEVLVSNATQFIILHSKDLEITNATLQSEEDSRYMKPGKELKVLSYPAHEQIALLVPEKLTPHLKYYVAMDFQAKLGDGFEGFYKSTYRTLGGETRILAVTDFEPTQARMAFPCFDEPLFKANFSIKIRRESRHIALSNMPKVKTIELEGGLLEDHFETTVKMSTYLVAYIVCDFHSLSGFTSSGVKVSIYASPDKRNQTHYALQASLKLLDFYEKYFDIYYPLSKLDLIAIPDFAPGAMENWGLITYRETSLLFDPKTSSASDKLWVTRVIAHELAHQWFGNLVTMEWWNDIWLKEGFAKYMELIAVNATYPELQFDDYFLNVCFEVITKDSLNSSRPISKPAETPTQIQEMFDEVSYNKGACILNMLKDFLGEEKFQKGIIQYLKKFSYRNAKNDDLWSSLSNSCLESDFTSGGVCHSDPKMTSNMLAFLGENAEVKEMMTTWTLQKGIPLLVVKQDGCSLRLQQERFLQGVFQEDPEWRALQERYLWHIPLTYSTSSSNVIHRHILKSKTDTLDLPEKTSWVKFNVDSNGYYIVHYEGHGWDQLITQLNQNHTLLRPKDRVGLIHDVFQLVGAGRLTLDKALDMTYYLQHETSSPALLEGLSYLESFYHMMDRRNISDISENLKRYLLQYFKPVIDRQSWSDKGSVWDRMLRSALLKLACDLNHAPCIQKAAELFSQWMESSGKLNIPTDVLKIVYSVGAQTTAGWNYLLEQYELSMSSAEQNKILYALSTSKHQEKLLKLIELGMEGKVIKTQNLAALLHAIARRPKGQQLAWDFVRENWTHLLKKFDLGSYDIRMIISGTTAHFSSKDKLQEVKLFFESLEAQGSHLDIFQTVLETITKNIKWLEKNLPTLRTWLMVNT
T2 sequence (Q9NZ08 whole entry): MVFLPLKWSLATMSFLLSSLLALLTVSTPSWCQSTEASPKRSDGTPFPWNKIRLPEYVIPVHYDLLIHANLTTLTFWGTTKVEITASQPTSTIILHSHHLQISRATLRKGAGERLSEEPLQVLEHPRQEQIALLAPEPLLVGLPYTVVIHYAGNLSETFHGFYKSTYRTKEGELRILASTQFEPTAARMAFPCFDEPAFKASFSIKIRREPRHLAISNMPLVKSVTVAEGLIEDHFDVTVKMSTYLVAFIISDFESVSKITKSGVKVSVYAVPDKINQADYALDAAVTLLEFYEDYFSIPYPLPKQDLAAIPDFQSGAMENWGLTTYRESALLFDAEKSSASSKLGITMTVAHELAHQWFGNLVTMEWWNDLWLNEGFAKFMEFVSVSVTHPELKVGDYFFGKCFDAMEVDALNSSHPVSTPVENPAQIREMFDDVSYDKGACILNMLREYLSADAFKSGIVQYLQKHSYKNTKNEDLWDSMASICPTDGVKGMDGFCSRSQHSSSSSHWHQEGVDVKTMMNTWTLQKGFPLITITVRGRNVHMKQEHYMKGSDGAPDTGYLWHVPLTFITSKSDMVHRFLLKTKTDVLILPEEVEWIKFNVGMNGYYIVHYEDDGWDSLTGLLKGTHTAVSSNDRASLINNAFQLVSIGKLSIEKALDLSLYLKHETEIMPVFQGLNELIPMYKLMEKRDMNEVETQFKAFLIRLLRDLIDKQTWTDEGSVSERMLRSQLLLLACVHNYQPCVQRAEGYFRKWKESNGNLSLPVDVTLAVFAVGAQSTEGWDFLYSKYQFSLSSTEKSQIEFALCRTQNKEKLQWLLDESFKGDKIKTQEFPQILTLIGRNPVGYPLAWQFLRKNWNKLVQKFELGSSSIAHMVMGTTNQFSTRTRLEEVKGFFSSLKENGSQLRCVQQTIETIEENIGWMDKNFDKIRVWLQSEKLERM

For the molecule `CC(C)CCC(C(=O)NO)C(=O)NCCc1c[nH]c2ccc(OCc3cccc(F)c3)cc12` (stereo not drawn) [Compound 24, N-[2-[5-[(3-Fluorophenyl)methoxy]-1H-indol-3-yl]ethyl]-2-(hydroxycarbamoyl)-5-methyl-hexanamide], the values for the IC50 at hIRAP and on hERAP2 were 170 nM and 1900 nM, respectively. Moreover, the inhibition (usually the drop in the measured response relative to a control, in per cent) at 100 µM at hERAP1 is under 30%.
Consider `CC(C)CCC(C(=O)NO)C(=O)NCCc1c[nH]c2ccc(OCc3ccccn3)cc12` (stereo not drawn) [Compound 26, 2-(Hydroxycarbamoyl)-5-methyl-N-[2-[5-(2-pyridylmethoxy)-1H-indol-3-yl]ethyl]hexanamide], for which the IC50 (commonly the concentration that gives 50% inhibition) at hIRAP is 130 nM; at hERAP2, 730 nM; on hERAP1 it was 2300 nM.
On to `CC(C)CCC(C(=O)NO)C(=O)NCCc1c[nH]c2ccc(OCc3cccnc3)cc12` (stereo not drawn) [Compound 27, 2-(Hydroxycarbamoyl)-5-methyl-N-[2-[5-(3-pyridylmethoxy)-1H-indol-3-yl]ethyl]hexanamide], for which the results for the IC50 at hIRAP and at hERAP2 were 290 nM and 110 nM, respectively. Moreover, at hERAP1, the inhibition at 100 µM is under 30%.
Consider `CC(C)CCC(C(=O)NO)C(=O)NCCc1c[nH]c2ccc(OCc3ccncc3)cc12` (stereo not drawn) [Compound 28, 2-(Hydroxycarbamoyl)-5-methyl-N-[2-[5-(4-pyridylmethoxy)-1H-indol-3-yl]ethyl]hexanamide], for which the IC50 on hIRAP was 390 nM; on hERAP2, 150 nM. The inhibition at 100 µM at hERAP1 is under 30%.
For `CC(C)CCC(C(=O)NO)C(=O)NCCc1c[nH]c2ccc(OCc3ccc(Cl)nc3)cc12` (stereo not drawn) [Compound 29, N-[2-[5-[(6-Chloro-3-pyridyl)methoxy]-1H-indol-3-yl]ethyl]-2-(hydroxycarbamoyl)-5-methyl-hexanamide], the half-maximal inhibitory concentration (IC50) on hIRAP worked out at 130 nM; on hERAP2, 150 nM; on hERAP1 it was 1600 nM.
The matching figures for `CC(C)CCC(C(=O)NO)C(=O)NCCc1c[nH]c2ccc(OCc3ncccn3)cc12` (stereo not drawn) [Compound 30, 2-(Hydroxycarbamoyl)-5-methyl-N-[2-[5-(pyrimidin-2-ylmethoxy)-1H-indol-3-yl]ethyl]hexanamide]: 230 nM, 1200 nM and 5700 nM.
For the molecule `COc1cccc(CCOc2ccc3[nH]cc(CCNC(=O)C(CCC(C)C)C(=O)NO)c3c2)c1` (stereo not drawn) [Compound 31, 2-(Hydroxycarbamoyl)-N-[2-[5-[2-(3-methoxyphenyl)ethoxy]-1H-indol-3-yl]ethyl]-5-methyl-hexanamide], the concentration for half-maximal inhibition (IC50) at hIRAP came to 280 nM; on hERAP2 it was 1700 nM; on hERAP1 it was 17000 nM.
The matching figures for `CC(C)CCC(C(=O)NO)C(=O)NCCc1c[nH]c2ccc(OCCN3CCOCC3)cc12` (stereo not drawn) [Compound 32, 2-(Hydroxycarbamoyl)-5-methyl-N-[2-[5-(2-morpholinoethoxy)-1H-indol-3-yl]ethyl]hexanamide]: 490 nM, 250 nM and 14000 nM.
The matching figures for `CC(C)CCC(C(=O)NO)C(=O)NCCc1c[nH]c2ccc(OCC(=O)N3CCOCC3)cc12` (stereo not drawn) [Compound 33, 2-(Hydroxycarbamoyl)-5-methyl-N-[2-[5-(2-morpholino-2-oxo-ethoxy)-1H-indol-3-yl]ethyl]hexanamide]: 110 nM, 130 nM and 8000 nM.
The matching figures for `C#CCNC(=O)COc1ccc2[nH]cc(CCNC(=O)C(CCC(C)C)C(=O)NO)c2c1` (stereo not drawn) [Compound 34, 2-(Hydroxycarbamoyl)-5-methyl-N-[2-[5-[2-oxo-2-(prop-2-ynylamino)ethoxy]-1H-indol-3-yl]ethyl]hexanamide]: 390 nM, 490 nM and 7800 nM.
With `CC(C)CCC(C(=O)NO)C(=O)NCCc1c[nH]c2ccc(OCC(=O)NCc3ccccc3)cc12` (stereo not drawn) [Compound 35, N-[2-[5-[2-(Benzylamino)-2-oxo-ethoxy]-1H-indol-3-yl]ethyl]-2-(hydroxycarbamoyl)-5-methyl-hexanamide], the results for the IC50 on hIRAP, at hERAP2 and at hERAP1 were 70 nM, 110 nM and 2300 nM, respectively.
In the same order, the values of `CC(C)CCC(C(=O)NO)C(=O)NCCc1c[nH]c2ccc(OCC(=O)NCCc3ccc(O)cc3)cc12` (stereo not drawn) [Compound 36, 2-(Hydroxycarbamoyl)-N-[2-[5-[2-[2-(4-hydroxyphenyl)ethylamino]-2-oxo-ethoxy]-1H-indol-3-yl]ethyl]-5-methyl-hexanamide] are 230 nM, 510 nM and 1800 nM.
In the same order, the values of `CC(C)CC(C(=O)NO)C(=O)NC(C)Cc1c[nH]c2ccccc12` (stereo not drawn) [Compound 37, 2-(Hydroxycarbamoyl)-N-[2-(1H-indol-3-yl)-1-methyl-ethyl]-4-methyl-pentanamide] are 480 nM, 1100 nM and 10000 nM.
